# Laboratory results: PubChem BioAssay (NCI)
#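 Growth conditions: 96-well plates. Treatment: test compound, 48 hours, 5 concentrations. Analysis: linear interpolation between bracketing concentrations; unreached endpoints set to highest concentration. Abbreviation: GI50, concentration required for 50% inhibition of growth. TGI is the concentration that stops growth completely.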
# Legend:
# Assay in all cases: NCI-60 cell line screen, 48 h
# HCT-116 colon = tested on: HCT-116 colon
# SF-268 CNS = tested on: SF-268 CNS
# HL-60(TB) leukemia = tested on: HL-60(TB) leukemia
# K-562 leukemia = tested on: K-562 leukemia
# HCT-15 colon = tested on: HCT-15 colon
# SN12C renal = tested on: SN12C renal
# A498 renal = tested on: A498 renal
# CAKI-1 renal = tested on: CAKI-1 renal
# SR leukemia = tested on: SR leukemia
# MCF7 breast = tested on: MCF7 breast
Structure (SMILES),GI50 (HCT-116 colon) [µM],TGI (HCT-116 colon) [µM],GI50 (SF-268 CNS) [µM],TGI (SF-268 CNS) [µM],GI50 (HL-60(TB) leukemia) [µM],TGI (HL-60(TB) leukemia) [µM],GI50 (K-562 leukemia) [µM],TGI (K-562 leukemia) [µM],GI50 (HCT-15 colon) [µM],TGI (HCT-15 colon) [µM],GI50 (SN12C renal) [µM],TGI (SN12C renal) [µM],GI50 (A498 renal) [µM],TGI (A498 renal) [µM],GI50 (CAKI-1 renal) [µM],TGI (CAKI-1 renal) [µM],GI50 (SR leukemia) [µM],TGI (SR leukemia) [µM],GI50 (MCF7 breast) [µM],TGI (MCF7 breast) [µM]
COC(=O)[C@H](Cc1cn(C)cn1)NC(=O)[C@@H](NC(=O)Nc1cc(C(F)(F)F)cc(C(F)(F)F)c1)C(C)(C)C,> 10,> 10,> 10,> 10,> 10,> 10,> 10,> 10,> 10,> 10,> 10,> 10,> 10,> 10,> 10,> 10,> 10,> 10,> 10,> 10
N#Cc1ccc(NC(=O)Nc2nc3ccc(OC(F)(F)F)cc3s2)cc1,0.552,2.87,3.06,16.8,2.44,21.3,0.534,26.1,1.38,6.45,1.58,8.64,0.473,4.41,1.59,9.12,0.736,5.77,1,11.6
S=C1SCN(C2CCCCCCCCCCC2)CN1C1CCCCCCCCCCC1,–,> 100,–,> 100,–,> 100,–,> 100,–,> 100,–,> 100,–,> 100,–,> 100,–,> 100,–,> 100
Cc1ccccc1C[P+](c1ccccc1)(c1ccccc1)c1ccccc1,0.896,> 100,1.89,> 100,1.58,5.75,0.786,> 100,27.9,> 100,2.42,> 100,1.93,12.7,23.6,> 100,2.02,> 100,0.649,39.6
Clc1nc(-c2ccccc2)nc(Cl)c1Cl,–,17,–,30.7,–,33,–,> 43.2,–,21.2,–,31.4,–,31.5,–,8.62,–,7.53,–,24.5
COc1c(N2CCN(CN3C(=O)C(=O)c4ccccc43)C(C)C2)c(F)cc2c(=O)c(C(=O)O)cn(C3CC3)c12 (stereo not drawn),44.9,> 100,46,> 100,> 100,> 100,47,> 100,55.8,> 100,47.3,> 100,33.6,> 100,> 100,> 100,32.1,> 100,33.8,> 100
O=C1CCC(N2C(=O)c3cccc(NCCOCCOCCNC(=O)c4cc5c(o4)C(=O)c4ccccc4C5=O)c3C2=O)C(=O)N1 (stereo not drawn),2.32,6.9,2.18,5.72,2.1,6.82,2.55,12.7,4.08,19.2,1.54,2.92,1.66,3.12,2.91,10.1,1.76,22.9,1.35,3.54
CC1(C)OC2COC(c3[nH]nc4c(=O)[nH]c(=O)[nH]c34)C2O1 (stereo not drawn),–,> 100,–,> 100,–,> 100,–,> 100,–,> 100,–,> 100,–,> 100,–,> 100,–,> 100,–,> 100
COC(=O)CCCNC(=O)C(=O)c1c(O)c(O)c(C(C)C)c2cc(C)c(-c3c(C)cc4c(C(C)C)c(O)c(O)c(C(=O)C(=O)NCCCC(=O)OC)c4c3O)c(O)c12,0.156,2.31,0.435,5.13,0.931,6.76,0.246,6.88,0.587,4.45,0.844,6.85,1.36,14.3,1.51,> 32.5,0.706,3.17,0.641,4.71
COCC(=O)NC/C=C/c1ccc2ncnc(Nc3ccc(Oc4ccc(C)nc4)c(C)c3)c2c1,13.7,30.9,15.7,50.9,21.9,59,17.8,> 91.4,9.36,74.2,12,35.7,4.13,32.6,3.31,49.5,10.7,50.4,4.11,32.5
CC(C)Cc1ccc(C(C)/C=C2\CCC(CN3CCCCC3)C2=O)cc1 (stereo not drawn),–,12.7,–,8.29,–,5,–,9.19,–,7.29,–,4.44,–,28.2,–,20.4,–,8.23,–,4.08
COc1ccccc1N1CCN(CCCOc2ccc(C(=O)/C=C3/C(=O)Nc4ccccc43)cc2)CC1,5.75,23.5,16.8,47.3,6.09,27.2,3.51,> 34.8,7.88,> 68.1,19.9,> 100,19.3,70.5,15.5,> 62.8,2.57,14.4,7.17,31.8
O=C(Nc1ccc(-n2ccc3c(NC(=O)c4ccccc4)nccc32)cc1)c1ccc(N2CCOCC2)c(C(F)(F)F)c1,0.035,15.7,0.122,> 77.1,1.01,> 100,0.0429,> 100,–,> 43.4,3.93,> 100,2.19,26.6,0.0565,15.7,< 0.0189,> 100,0.0734,25
NC(Cc1c[nH]c2cc(F)ccc12)C(=O)O (stereo not drawn),1030,> 2500,1270,> 2500,951,> 2500,912,> 2500,888,> 2500,1330,> 2500,> 2500,> 2500,–,> 2500,1040,> 2500,1290,> 2500
C[C@@H]1OC(=O)NN=C1c1ccc(-c2ccc(F)cc2)c(C(F)(F)F)c1,5.27,20.6,1.03,21.5,7.93,> 100,3.2,> 100,4.6,17.9,5.63,21.8,15.5,29.5,4.88,18.7,2.58,13,10.1,25
CC(=Nc1ccccc1)C1=C(O)C(Cc2ccc(F)cc2)NC1=O (stereo not drawn),0.49,> 100,4.45,> 100,0.287,> 100,0.343,> 100,0.488,> 100,5.76,> 100,0.444,5.04,2.9,> 100,0.26,> 100,0.412,> 100
N#CC(C(=O)O)C(c1c(Cl)cccc1Cl)C(C#N)C(=O)O (stereo not drawn),–,> 100,–,> 100,–,> 100,–,> 100,–,> 100,–,> 100,–,> 100,–,> 100,–,> 100,–,> 100
CCOC(=O)C(=O)C(/C(=N/N(C)C)C(=O)Nc1ccc(C)cc1C)c1nc2ccccc2[nH]c1=O (stereo not drawn),–,> 100,–,> 100,–,> 100,–,> 100,–,> 100,–,> 100,–,> 100,–,> 100,–,> 100,–,> 100
CN1CCN(Cc2ccc(NC(=O)c3cccc(C#Cc4c(N)ncc5ccc(F)cc45)c3)cc2C(F)(F)F)CC1,0.816,1.61,0.719,1.58,0.626,1.88,0.005,0.674,0.621,1.41,0.663,1.44,0.578,1.26,0.727,1.43,1.02,2.71,0.768,1.53
O=S(=O)(NCCNc1cc(-c2cn(-c3ccccc3)nc2-c2cccc(O)c2)ccn1)c1ccc(Br)cc1,2.44,6.48,2.25,7.06,2.19,5.76,1.98,5.49,1.8,4.39,2.14,4.78,1.45,5.47,3.42,20.4,1.97,5.58,2.33,6.91
O=C(O)CNC(=O)C1NC(C(F)(F)F)(C(F)(F)F)OC1(C(F)(F)F)C(F)(F)F (stereo not drawn),–,> 100,–,> 100,–,> 100,–,> 100,–,> 100,–,> 100,–,> 100,–,> 100,–,> 100,–,> 100
COc1ccc(C(=O)c2cc(C)c(OC)c(C)c2)c(OC)c1N(C(=O)CCl)C(=O)CCl,0.0638,10.8,0.548,46,0.0316,0.106,0.0557,> 100,0.0537,14.2,0.0831,20.9,0.0244,0.103,0.0414,33.5,0.045,> 100,0.0657,> 38.6
C[C@H](C(O)CC(=O)C(C)(C)O)[C@H]1CC[C@@]2(C)[C@@H]3CC[C@H]4C(C)(C)[C@@H](OC5OC(COC6OC(CO)C(O)C(O)C6O)C(O)C(O)C5O)CC[C@]4(C)C3=CC[C@]12C (stereo partly drawn),–,> 100,–,> 100,–,> 100,–,> 100,–,> 100,–,> 100,–,> 100,–,> 100,–,> 100,–,> 100
COC1C(O)CC(OC2CC(OC3CC(O[C@@H]4C(=O)c5c(cc6cc(OC7CC(OC8CC(O)C(O)C(C)O8)C(O)C(C)O7)c(C)c(O)c6c5O)CC4[C@H](OC)[C@@H](O)C(C)=O)OC(C)C3O)OC(C)C2O)OC1C (stereo partly drawn),0.00621,> 33.3,0.0155,> 33.3,0.0236,6.94,0.0163,> 33.3,0.335,> 33.3,0.0192,> 33.3,0.0214,0.103,0.749,> 33.3,0.00624,1.65,0.00649,> 33.3
CCN(CC)CCC(=O)N1C/C(=C/c2ccccc2)C(=O)/C(=C\c2ccccc2)C1,–,1.02,–,5.4,–,1.62,–,2.62,–,3.91,–,3.39,–,11,–,5.08,–,> 100,–,1.69
CCN(CC)c1ccc(/C=N/NC(=O)c2ccccc2Nc2ccnc(C(F)(F)F)c2)c(O)c1,0.0895,> 100,0.0942,> 100,0.162,0.518,0.384,> 100,0.0457,> 100,0.278,> 100,0.354,> 32.9,0.0577,0.387,0.0721,0.728,0.248,> 100
